Results: article PMC11990670, “Exploring the Volatility, Phase Transitions, and Solubility Properties of Five Halogenated Benzaldehydes” (Molecules, 2025)
≈ marks a conversion by molar mass, not a printed value.

How the values were obtained:
[1] = Equilibrium solubility in water, saturation shake-flask method with UV-vis; conditions: 25 °C, thermodynamic from solid
Procedure: (§1) The concentration was measured by absorbances at 260 nm for 4-chlorobenzaldehyde, 263 nm for 4-bromobenzaldehyde and 2,4-dichlorobenzaldehyde, 297 nm for 2,6-dichlorobenzaldehyde, and 306 nm for 2,3-dichlorobenzaldehyde, using a Cary-60 UV–vis (Agilent) spectrophotometer. X-ray diffraction (XRD) and differential scanning calorimetry of residual solids were used to identify the eventual phase transformations. The purified samples of each compound studied were used for all experimental determinations, including the solubility measurements. After reaching the equilibrium, the residual solid was dried and analyzed using both DSC and XRD. The melting properties obtained from DSC were compared with those of the original purified sample, following the same procedure for the XRD analysis. […] As an example, the supporting information includes two thermograms and two XRD patterns for 2,4-dichlorobenzaldehyde (Figures S1 and S2). […] Equation (4) was derived from Equation (5), which is widely applicable to the solubility of solids.(4) ΔhydrGm°/kJ·mol^−1=9.17−5.71·log10(Scr/mol·m^−3)−ΔcrgGm°/kJ·mol^−1 (5) S=p^°/RTexpΔcrgGm°+ΔhydrGm°/−RT
(§2) An excess amount of each compound was added to a known volume of water in triplicate. […] After stirring, the solid phase was allowed to settle for 2 h. The pH of the saturated solutions was measured using a Mettler Toledo (Greifensee, Switzerland) FiveEasy F20 pH Meter calibrated with standard aqueous solutions (pH 7.00 and 4.01 or 10.1). Those solutions were then filtered through a 0.22 μm syringe hydrophilic filter (13 mm, PTFE, Labfil, Zhejiang, China) and diluted to the required concentration. The concentration of the compounds, expressed in molarity, was measured by absorbances using a Cary-60 UV–vis spectrophotometer (Agilent Technologies, Santa Clara, CA, USA) at 298.15 K (single cell Peltier accessory, ±0.15 K). The results reported in Table 6 are averaged from at least three replicates. Calibration was performed using solutions of known concentrations of each substance in water. These solutions were prepared by adding a precise mass of the substance and a specific volume of the solvent to a flask, then mixing until the substance was fully dissolved. The absorbance of these solutions was measured, and calibration curves were created.

[2] = Thermodynamic properties of sublimation and vaporization from Clarke and Glew fit of vapor pressures
Text: The experimental crystalline and liquid vapor pressures were independently fitted by the Clarke and Glew Equation (1) in its truncated form:(1) Rlnp/p^°=−ΔcdgGm°θ/θ+ΔcdgHm°θ1/θ−1/T+ΔcdgCp,m°θθ/T−1+lnT/θ where R is the molar gas constant, p is the vapor pressure at the temperature T, p° is a selected reference pressure (p° = 10^5 Pa in this work), and θ is a reference temperature. The differences between gaseous and condensed phases of standard molar Gibbs energy, enthalpy, and the isobaric heat capacity are represented, respectively, by ΔcdgGm° , ΔcdgHm° , and ΔcdgCp,m° .
The values of ΔcdgCp,m° are generally achieved only when accurate experimental data measured over ca. 50 K are reachable. […] For comparison reasons, the values of ΔcrgCp,m° were also calculated as ΔcrgCp,m°(θ)=Cp,m°(g)−Cp,m°(cr) , where the terms Cp,m°(g) and Cp,m°(cr) are, respectively, the gas and crystalline isobaric molar heat capacities. […] The crystalline molar heat capacities, Cp,m°(cr) , were determined at different temperatures using differential scanning calorimetry, enabling the fit to second-order polynomials in temperature, represented by Equation (3) and reported in Table 3. […] The values of Cp,m°(cr,298.15 K) were derived from these equations, allowing ΔcrgCp,m°(298.15 K) to be calculated.

[3] = pH of the saturated aqueous solutions; type: physicochemical; conditions: saturated aqueous solution of the solubility experiment
Procedure: as §1, §2

[4] = Gibbs energy of hydration and Henry's law volatility constant calculated from sublimation and solubility data; conditions: 25 °C
Procedure: as §1
The standard states in Equation (5) are p° = 1 × 10^5 Pa for ΔcrgGm° , c° = 1 mol·L^−1 for ΔhydrGm° and s° = 1 mol·m^−3 for solubility. Using the experimental results of ΔhydrGm° , calculated through Equation (4), the values of Henry’s law volatility constants, KHpc, were determined in the logarithm form by Equation (6), that was adapted from Modarressi et al..

[5] = crystalline phase, θ = 291.18 K (mean temperature)
[6] = crystalline phase, θ = 298.15 K, p° = 10^5 Pa
[7] = crystalline phase, θ = 319.43 K (triple point)
[8] = liquid phase including supercooled liquid, θ = 298.15 K, p° = 10^5 Pa
[9] = liquid phase, θ = 319.43 K (triple point)
[10] = liquid phase, θ = 331.52 K (mean temperature)

solubility at 72 h [1]: 8.83 mM (≈ 1240 µg/mL)
triple point pressure ptp ([2]; Ttp = 319.43 K): 1.23 × 10^2 Pa
p (Equation (1)) vapor pressure [2, 5]: 8.54 Pa
ΔcdgGm°(θ) standard molar Gibbs energy of sublimation [2, 5]: 22.68 ± 0.01 kJ/mol
ΔcdgHm°(θ) standard molar enthalpy of sublimation [2, 5]: 73.6 ± 0.1 kJ/mol
p (Equation (1)) vapor pressure ([2]; crystalline phase, θ = 298.15 K): 17.3 Pa
ΔcdgGm°(θ) standard molar Gibbs energy of sublimation [2, 6]: 21.47 ± 0.01 kJ/mol
ΔcdgHm°(θ) standard molar enthalpy of sublimation [2, 6]: 73.3 ± 0.2 kJ/mol
ΔcdgSm°(θ) (Equation (2)) standard molar entropy of sublimation [2, 6]: 173.8 ± 0.7 J·K^−1·mol^−1
p (Equation (1)) vapor pressure [2, 7]: 123 Pa
ΔcdgGm°(θ) standard molar Gibbs energy of sublimation [2, 7]: 17.79 ± 0.02 kJ/mol
ΔcdgHm°(θ) standard molar enthalpy of sublimation [2, 7]: 72.6 ± 0.6 kJ/mol
p (Equation (1)) vapor pressure ([2]; liquid phase including supercooled liquid, θ = 298.15 K): 27.3 Pa
ΔcdgGm°(θ) standard molar Gibbs energy of vaporization [2, 8]: 20.34 ± 0.03 kJ/mol
ΔcdgHm°(θ) standard molar enthalpy of vaporization [2, 8]: 56.7 ± 0.6 kJ/mol
ΔcdgSm°(θ) (Equation (2)) standard molar entropy of vaporization [2, 8]: 122.0 ± 2.0 J·K^−1·mol^−1
p (Equation (1)) vapor pressure [2, 9]: 123 Pa
ΔcdgGm°(θ) standard molar Gibbs energy of vaporization [2, 9]: 17.79 ± 0.02 kJ/mol
ΔcdgHm°(θ) standard molar enthalpy of vaporization [2, 9]: 55.2 ± 0.2 kJ/mol
p (Equation (1)) vapor pressure [2, 10]: 262 Pa
ΔcdgGm°(θ) standard molar Gibbs energy of vaporization [2, 10]: 16.39 ± 0.01 kJ/mol
ΔcdgHm°(θ) standard molar enthalpy of vaporization [2, 10]: 54.4 ± 0.1 kJ/mol
pH of the saturated solution [3]: 6.61
Gibbs energy of hydration ΔhydrGm° ([4]; calculated by Equation (4)): -17.7 kJ/mol
log10(KHpc/kPa·m^3·mol^−1) Henry's law volatility constant ([4]; calculated by Equation (6)): −2.71
KHpc×10^3 Henry's law volatility constant ([4]; value is KHpc multiplied by 10^3): 1.95 kPa·m^3·mol^−1
SMILES: O=Cc1ccc(Cl)cc1 [4-Chlorobenzaldehyde]
